Results reported in US20150133512A1, “N-ARYLTRIAZOLE COMPOUNDS AS LPAR ANTAGONISTS” (Hoffmann-La Roche Inc,, priority 2012, published 2015).
pIC50: −log10 of the molar value.

Legend:
[1] = molecular target: human recombinant LPA1 Lysophospholipid receptor (Homo sapiens, UniProt Q92633); test: Calcium flux assay using FLIPR, LPA1 antagonist activity; type: cell-based; conditions: for pIC50: ChemiScreen Calcium-optimized stable cell line, antagonist mode, inhibition of agonist-induced calcium flux
human recombinant LPA1 Lysophospholipid receptor, sequence (Q92633 whole entry): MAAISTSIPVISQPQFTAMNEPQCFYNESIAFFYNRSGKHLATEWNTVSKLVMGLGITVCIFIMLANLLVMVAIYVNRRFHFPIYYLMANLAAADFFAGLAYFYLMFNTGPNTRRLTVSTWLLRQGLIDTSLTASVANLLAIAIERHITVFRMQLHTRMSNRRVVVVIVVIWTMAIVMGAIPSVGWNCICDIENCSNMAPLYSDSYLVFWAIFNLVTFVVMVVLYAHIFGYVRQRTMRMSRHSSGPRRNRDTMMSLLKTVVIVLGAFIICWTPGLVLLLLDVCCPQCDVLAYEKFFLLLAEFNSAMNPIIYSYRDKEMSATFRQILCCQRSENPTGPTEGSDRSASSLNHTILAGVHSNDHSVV
Protocol: (§1) Calcium Flux Assay Using Fluorometric Imaging Plate Reader (FLIPR)
Cell Culture Conditions: The ChemiScreen Calcium-optimized stable cell line containing the human recombinant LPA1 Lysophospholipid receptor was purchased from Chemicon International, Inc./Millipore. The cells were cultured in DMEM-high glucose supplemented with 10% fetal bovine serum, 2 mM glutamine, 100 U/mL penicillin/100 μg/mL streptomycin, 1× non-essential amino acids, 10 mM HEPES and 0.25 mg/mL Geneticin. Cells were harvested with trypsin-EDTA and counted using ViaCount reagent. The cell suspension volume was adjusted to 2.0×10^5 cells/mL with complete growth media. Aliquots of 50 μL were dispensed into 384 well black/clear tissue culture treated plates (BD) and the microplates were placed in a 37° C. incubator overnight. The following day plates were used in the assay.
(§2) Dye Loading and Assay: Loading Buffer (FLIPR Calcium-4, Molecular Devices) was prepared by dissolving the contents of one bottle into 100 mL Hank's Balanced Salt Solution containing 20 mM HEPES and 2.5 mM probenecid. Plates were loaded onto Biotek plate washer and growth media was removed and replaced with 20 μL of Hank's Balanced Salt Solution containing 20 mM HEPES and 2.5 mM probenecid, followed by 25 μL of Loading Buffer. The plates were then incubated for 30 minutes at 37° C.
During the incubation, test compounds were prepared by adding 90 μL of HBSS/20 mM HEPES/0.1% BSA buffer to 2 μL of serially diluted compounds. To prepare serial dilutions, 10 mM stocks of compounds were prepared in 100% DMSO.
After incubation, both the cell and “assay” plates were brought to the FLIPR and 20 μL of the diluted compounds were transferred to the cell plates by the FLIPR. Compound addition was monitored by FLIPR to detect any agonist activity of the compounds. Plates were then incubated for 30 minutes at room temperature protected from light. […] During the assay, fluorescence readings were taken simultaneously from all 384 wells of the cell plate every 1.5 seconds. Five readings were taken to establish a stable baseline, then 20 μL of sample was rapidly (30 μL/sec) and simultaneously added to each well of the cell plate. The fluorescence was continuously monitored before, during and after sample addition for a total elapsed time of 100 seconds. Responses (increase in peak fluorescence) in each well following agonist addition was determined. The initial fluorescence reading from each well, prior to ligand stimulation, was used as zero baseline value for the data from that well. The responses were expressed as % inhibition of the buffer control.

LPA3 = molecular target: T1, LPA3 (Homo sapiens, UniProt Q9UBY5); test: Calcium flux assay using FLIPR, LPA3 antagonist activity; type: cell-based; conditions: for pIC50: antagonist activity
T1 sequence (Q9UBY5 1-353): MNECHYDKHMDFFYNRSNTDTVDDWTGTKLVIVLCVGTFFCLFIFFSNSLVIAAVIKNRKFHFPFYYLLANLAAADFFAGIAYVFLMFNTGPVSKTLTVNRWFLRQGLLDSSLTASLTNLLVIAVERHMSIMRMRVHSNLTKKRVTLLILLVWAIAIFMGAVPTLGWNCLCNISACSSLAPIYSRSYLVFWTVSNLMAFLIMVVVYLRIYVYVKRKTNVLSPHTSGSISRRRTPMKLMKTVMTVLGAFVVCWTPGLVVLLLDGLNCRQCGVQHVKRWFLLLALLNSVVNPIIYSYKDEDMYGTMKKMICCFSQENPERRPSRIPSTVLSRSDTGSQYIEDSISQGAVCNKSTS
Protocol: as §1, §2
During the incubation, test compounds were prepared by adding 90 μL of HBSS/20 mM HEPES/0.1% BSA buffer to 2 μL of serially diluted compounds. To prepare serial dilutions, 10 mM stocks of compounds were prepared in 100% DMSO. The compound dilution plate was set up as follows: well #1 received 29 μL of stock compound and 31 μL DMSO; wells 2-10 received 40 μL of DMSO; mixed and transferred 20 μL of solution from well #1 into well #2; continued with 1:3 serial dilutions out 10 steps; transferred 2 μL of diluted compound into duplicate wells of 384 well “assay plate” and then added the 90 μL of buffer.
After incubation, both the cell and “assay” plates were brought to the FLIPR and 20 μL of the diluted compounds were transferred to the cell plates by the FLIPR. Compound addition was monitored by FLIPR to detect any agonist activity of the compounds. Plates were then incubated for 30 minutes at room temperature protected from light. After the incubation, plates were returned to the FLIPR and 20 μL of 4.5× concentrated agonist was added to the cell plates. During the assay, fluorescence readings were taken simultaneously from all 384 wells of the cell plate every 1.5 seconds. Five readings were taken to establish a stable baseline, then 20 μL of sample was rapidly (30 μL/sec) and simultaneously added to each well of the cell plate. The fluorescence was continuously monitored before, during and after sample addition for a total elapsed time of 100 seconds. Responses (increase in peak fluorescence) in each well following agonist addition was determined. The initial fluorescence reading from each well, prior to ligand stimulation, was used as zero baseline value for the data from that well. The responses were expressed as % inhibition of the buffer control.

SMILES: Cc1nnn(-c2ccc(-c3ccc(CC(=O)O)cc3)cc2)c1NC(=O)O[C@H](C)c1ccccc1 [Example 2, {4′-[4-Methyl-5-((R)-1-phenyl-ethoxycarbonylamino)-[1,2,3]triazol-1-yl]-biphenyl-4-yl}-acetic acid]
- inhibition at 30 µM [1]: 40%
- pIC50 [1]: < 4.52
- pIC50 (LPA3): < 4.52

SMILES: Cc1nnn(-c2ccc(-c3ccc(C4(C(=O)O)CC4)cc3)cc2)c1NC(=O)O[C@@H]1CCc2ccccc21 [Example 8, 1-{4′-[5-((R)-Indan-1-yloxycarbonylamino)-4-methyl-[1,2,3]triazol-1-yl]-biphenyl-4-yl}-cyclopropanecarboxylic acid]
- pIC50 [1]: < 4.52
- pIC50 (LPA3): < 4.52

SMILES: Cc1nnn(-c2ccc(-c3ccc(C4(C(=O)O)CCC4)cc3)cc2)c1NC(=O)O[C@H](C)c1ccccc1 (single isomer, unassigned) [Example 32]
- pIC50 [1]: 6.76
- pIC50 (LPA3): < 4.52

SMILES: CCc1nnn(-c2ccc(-c3ccc(C4(C(=O)O)CC4)cc3)cc2)c1NC(=O)O[C@H](C)c1ccccc1 [Example 17, 1-{4′-[4-Ethyl-5-((R)-1-phenyl-ethoxycarbonylamino)-[1,2,3]triazol-1-yl]-biphenyl-4-yl}-cyclopropanecarboxylic acid]
- pIC50 [1]: 7.37
- inhibition at 30 µM (LPA3): 63.7%
- pIC50 (LPA3): 4.66

SMILES: Cc1nnn(-c2ccc(-c3ccc(C4(C(=O)NS(C)(=O)=O)CC4)cc3)cc2)c1NC(=O)O[C@H](C)c1ccccc1 [Example 30, {3-[4′-(1-Methanesulfonylaminocarbonyl-cyclopropyl)-biphenyl-4-yl]-5-methyl-3H[1,2,3]triazol-4-yl}-carbamic acid (R)-1-phenyl-ethyl ester]
- pIC50 [1]: 7.48
- pIC50 (LPA3): < 4.52

SMILES: Cc1nnn(-c2ccc(-c3ccc(C4(C(=O)O)CC4)c(F)c3)cc2)c1NC(=O)O[C@H](C)c1ccccc1 [Example 15, 1-{3-Fluoro-4′-[4-methyl-5-((R)-1-phenyl-ethoxycarbonylamino)-[1,2,3]triazol-1-yl]-biphenyl-4-yl}-cyclopropanecarboxylic acid]
- pIC50 [1]: 7.66
- inhibition at 30 µM (LPA3): 46.3%

SMILES: Cc1c(NC(=O)O[C@H](C)c2ccccc2)nnn1-c1ccc(-c2ccc(CC(=O)O)cc2)cc1 [Example 4, {4′-[5-Methyl-4-((R)-1-phenyl-ethoxycarbonylamino)-[1,2,3]triazol-1-yl]-biphenyl-4-yl}-acetic acid]
- pIC50 [1]: < 4.52
- pIC50 (LPA3): < 4.52

SMILES: CCc1nnn(-c2ccc(-c3ccc(CC(=O)O)cc3)cc2)c1NC(=O)O[C@H](C)c1cccc(C(F)(F)F)c1 [Example 20]
- inhibition at 30 µM [1]: 58.3%
- pIC50 [1]: 4.67
- inhibition at 30 µM (LPA3): 72.5%
- pIC50 (LPA3): 4.84

SMILES: COc1cc(-c2ccc(C3(C(=O)O)CC3)cc2)ccc1-n1nnc(C)c1NC(=O)O[C@H](C)c1ccccc1 [Example 16, 1-{3′-Methoxy-4′-[4-methyl-5-((R)-1-phenyl-ethoxycarbonylamino)-[1,2,3]triazol-1-yl]-biphenyl-4-yl}-cyclopropanecarboxylic acid]
- pIC50 [1]: 6.61
- pIC50 (LPA3): < 4.52

SMILES: Cc1nnn(-c2ccc(-c3ccc(C4(C(=O)O)CC4)cc3)cc2)c1NC(=O)O[C@H](C)c1ccccc1C(F)(F)F [Example 6, 1-(4′-{4-Methyl-5-[(R)-1-(2-trifluoromethyl-phenyl)-ethoxycarbonylamino]-[1,2,3]triazol-1-yl}-biphenyl-4-yl)-cyclopropanecarboxylic acid]
- pIC50 [1]: 6.95
- inhibition at 30 µM (LPA3): 55.2%
- pIC50 (LPA3): 4.59

SMILES: Cc1nnn(-c2ccc(-c3ccc(C4(C(=O)NS(C)(=O)=O)CC4)cc3)cc2)c1NC(=O)O[C@H](C)c1cccc(C(F)(F)F)c1 [Example 35, {3-[4′-(1-Methanesulfonylaminocarbonyl-cyclopropyl)-biphenyl-4-yl]-5-methyl-3H[1,2,3]triazol-4-yl}-carbamic acid (R)-1-(3-trifluoromethyl-phenyl)-ethyl ester]
- pIC50 [1]: 5.34
- pIC50 (LPA3): 5.24

SMILES: Cc1c(NC(=O)O[C@H](C)c2ccccc2)nnn1-c1ccc(-c2ccc(C3(C(=O)O)CC3)cc2)cc1 [Example 3, 1-{4′-[5-Methyl-4-((R)-1-phenyl-ethoxycarbonylamino)-[1,2,3]triazol-1-yl]-biphenyl-4-yl}-cyclopropanecarboxylic acid]
- pIC50 [1]: < 4.52
- pIC50 (LPA3): < 4.52

SMILES: C[C@@H](OC(=O)Nc1nncn1-c1ccc(-c2ccc(C3(C(=O)O)CC3)cc2)cc1)c1ccccc1 [Example 31, 1-{4′-[3-((R)-1-Phenyl-ethoxycarbonylamino)-[1,2,4]triazol-4-yl]-biphenyl-4-yl}-cyclopropanecarboxylic acid]
- inhibition at 30 µM [1]: 11%
- pIC50 [1]: < 4.52
- pIC50 (LPA3): < 4.52

SMILES: Cc1nnn(-c2ccc(C3CCC(CC(=O)O)CC3)cc2)c1NC(=O)O[C@H](C)c1ccccc1 (stereo partly drawn) [Example 34, (R)-2-(4-(4-(4-Methyl-5-((1-phenylethoxy)carbonylamino)-1H-1,2,3-triazol-1-yl)phenyl)cyclohexyl)acetic acid]
- pIC50 [1]: 5.02
- pIC50 (LPA3): < 4.52

SMILES: Cc1nnn(-c2ccc(-c3ccc(C4(C(=O)O)CC4)cc3)cc2)c1NC(=O)O[C@H](C)C(C)C [Example 9, 1-{4′-[5-((R)-1,2-Dimethyl-propoxycarbonylamino)-4-methyl-[1,2,3]triazol-1-yl]-biphenyl-4-yl}-cyclopropanecarboxylic acid]
- pIC50 [1]: 6.66
- pIC50 (LPA3): < 4.52

SMILES: Cc1nnn(-c2cccc(-c3ccc(CC(=O)O)cc3)c2)c1NC(=O)O[C@H](C)c1ccccc1 [Example 26, {3′-[4-Methyl-5-((R)-1-phenyl-ethoxycarbonylamino)-[1,2,3]triazol-1-yl]-biphenyl-4-yl}-acetic acid]
- pIC50 [1]: < 4.52
- pIC50 (LPA3): < 4.52

SMILES: Cc1nnn(-c2ccc(-c3ccc(C(C)(C)C(=O)O)cc3)cc2)c1NC(=O)O[C@H](C)c1ccccc1 [Example 23, 2-Methyl-2-{4′-[4-methyl-5-((R)-1-phenyl-ethoxycarbonylamino)-[1,2,3]triazol-1-yl]-biphenyl-4-yl}-propionic acid]
- inhibition at 30 µM [1]: 80.9%
- pIC50 [1]: 6.10
- pIC50 (LPA3): < 4.52

SMILES: Cc1nnn(-c2ccc(-c3ccc(C4(C(=O)O)CC4)cc3)cc2)c1NC(=O)OC(C)(C)C [Example 14, 1-[4′-(5-tert-Butoxycarbonylamino-4-methyl-[1,2,3]triazol-1-yl)-biphenyl-4-yl]-cyclopropanecarboxylic acid]
- pIC50 [1]: 6.01
- pIC50 (LPA3): < 4.52

SMILES: Cc1nnn(-c2ccc(-c3ccc(C4(C(=O)O)CC4)cc3)cc2)c1NC(=O)O[C@H](C)c1ccccc1F [Example 5, 1-(4′-{5-[(R)-1-(2-Fluoro-phenyl)-ethoxycarbonylamino]-4-methyl-[1,2,3]triazol-1-yl}-biphenyl-4-yl)-cyclopropanecarboxylic acid]
- pIC50 (LPA3): < 4.52

SMILES: Cc1nnn(-c2ccc(-c3ccc(C4(c5nnn[nH]5)CC4)cc3)cc2)c1NC(=O)O[C@H](C)c1ccccc1 [Example 29, (R)-1-Phenyl-ethyl-1-(4′-(1-(1H-tetrazol-5-yl)cyclopropyl)biphenyl-4-yl)-4-methyl-1H-1,2,3-triazol-5-ylcarbamate]
- pIC50 (LPA3): < 4.52
